Data: patent publication US10703764B2, “Benzopiperazine compositions as BET bromodomain inhibitors” (FORMA Therapeutics, Inc., priority 2013, dated 2020)

Experiments:
BRD4 BD2 = target: T1, BRD4 BD2 (Homo sapiens, UniProt O60885); test: AlphaScreen binding assay, BRD4 Bromodomain 2
T1 construct: made in house
Procedure, shortened: (§1)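 An AlphaScreen competition format was used with His-BRD4 BD1 or BD2 and biotin-H4 K5/8/12/16-acetyl peptide, each at matched final levels of 50 nM (BD1) or 100 nM (BD2). Incubation in HEPES/NaCl buffer with 0.1% BSA and 0.01% Triton X-100 ran ≥1 h before IC50 determination.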

MV4-11 cells = test: Oncology cell growth assay (3-day proliferation, CellTiter-Glo); format: cell-based; details: Homo sapiens, MV4-11, 72 h, AML cell line MV4-11, 72 hours, compounds grouped by IC50 range, read-out: MV4-11 IC50 (inhibition of proliferation, gIC50)
Procedure, shortened: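 72 h, 37° C, 5% CO2; MV4-11, 3000 cells/well, RPMI 1640 + 10% FBS. Compound final 10, 3.3, 1.1, 0.37, 0.12, 0.041, 0.013, 0.0045 μM. Readout CellTiter-Glo luminescence; gIC50 by 4-parameter logistic fit, normalised to DMSO and no-cell background.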

BRD4 BD1 = target: T2, BRD4 BD1 (Homo sapiens, UniProt O60885); test: AlphaScreen binding assay, BRD4 Bromodomain 1
T2 construct: made in house
Procedure, shortened: as §1

IC50 (BRD4 BD2)	IC50 (MV4-11 cells)	IC50 (BRD4 BD1)	Compound
50 to 500 nM	100 to 500 nM	100 to 1000 nM	COC(=O)N1c2ccc(-c3ccc(N4CCS(=O)(=O)CC4)cc3)cc2N(C(=O)C2CC2)C[C@@H]1C [Example I-455]
50 to 500 nM	100 to 500 nM	100 to 1000 nM	COC(=O)N1c2ccc(-c3ccc(C(=O)N4CCNCC4)cc3)cc2N(C(=O)C2CC2)C[C@@H]1C [Example I-456]
50 to 500 nM	100 to 500 nM	100 to 1000 nM	CC(=O)N1c2ccc(-c3cn(C)nn3)cc2N(C(=O)OC(C)C)C[C@@H]1C [Example I-465]
50 to 500 nM	100 to 500 nM	100 to 1000 nM	CC(=O)N1c2ccc(-c3ccc(N4CCS(=O)(=O)CC4)cc3)cc2N(C(=O)OC(C)C)C[C@@H]1C [Example I-467]
50 to 500 nM	100 to 500 nM	100 to 1000 nM	CC(C)OC(=O)N1C[C@H](C)N(C(=O)C2CC2)c2ccc(-c3ccc(N4CCS(=O)(=O)CC4)cc3)cc21 [Example I-468]
50 to 500 nM	100 to 500 nM	100 to 1000 nM	CC(=O)N1c2ccc(-c3ccc(N4CCCS4(=O)=O)cc3)cc2N(C(=O)OC(C)C)C[C@@H]1C [Example I-469]
> 500 nM	> 500 nM	100 to 1000 nM	CC(C)OC(=O)N1C[C@H](C)N(C(=O)C2CC2)c2ccc(-c3ccc(N4CCCS4(=O)=O)cc3)cc21 [Example I-470]
50 to 500 nM	100 to 500 nM	100 to 1000 nM	CC(=O)N1c2ccc(-c3cnc(N)cn3)cc2N(C(=O)OC(C)C)C[C@@H]1C [Example I-471]
> 500 nM	> 500 nM	100 to 1000 nM	CC(C)OC(=O)N1C[C@H](C)N(C(=O)C2CC2)c2ccc(-c3cnc(N)cn3)cc21 [Example I-472]
50 to 500 nM	100 to 500 nM	100 to 1000 nM	CC(=O)N1c2ccc(-c3ccc(C4(O)COC4)cc3)cc2N(C(=O)OC(C)C)C[C@@H]1C [Example I-473]
50 to 500 nM	> 500 nM	100 to 1000 nM	CC(C)OC(=O)N1C[C@H](C)N(C(=O)C2CC2)c2ccc(-c3ccc(C4(O)COC4)cc3)cc21 [Example I-474]
50 to 500 nM	100 to 500 nM	100 to 1000 nM	CC(=O)N1c2ccc(-c3ccc(CS(N)(=O)=O)cc3)cc2N(C(=O)OC(C)C)C[C@@H]1C [Example I-475]
> 500 nM	> 500 nM	100 to 1000 nM	CC(C)OC(=O)N1C[C@H](C)N(C(=O)C2CC2)c2ccc(-c3ccc(CS(N)(=O)=O)cc3)cc21 [Example I-476]
< 50 nM	100 to 500 nM	100 to 1000 nM	CC(=O)N1c2ccc(-c3ccc(S(=O)(=O)CCN)cc3)cc2N(C(=O)OC(C)C)C[C@@H]1C [Example I-477]
50 to 500 nM	100 to 500 nM	100 to 1000 nM	CC(=O)N1c2ccc(-c3ccc(S(=O)(=O)CCO)cc3)cc2N(C(=O)OC(C)C)C[C@@H]1C [Example I-478]
> 500 nM	> 500 nM	100 to 1000 nM	CC(C)OC(=O)N1C[C@H](C)N(C(=O)C2CC2)c2ccc(-c3ccc(S(=O)(=O)CCO)cc3)cc21 [Example I-479]
> 500 nM	> 500 nM	100 to 1000 nM	CC(C)OC(=O)N1C[C@H](C)N(C(=O)C2CC2)c2ccc(-c3cn(C)nn3)cc21 [Example I-482]
50 to 500 nM	> 500 nM	100 to 1000 nM	COC(=O)N1c2ccc(-c3ccc(N4CCS(=O)(=O)CC4)cc3)cc2N(C(=O)OC(C)C)C[C@@H]1C [Example I-483]
50 to 500 nM	> 500 nM	100 to 1000 nM	COC(=O)N1c2ccc(-c3cnc(N)cn3)cc2N(C(=O)OC(C)C)C[C@@H]1C [Example I-485]
50 to 500 nM	> 500 nM	100 to 1000 nM	COC(=O)N1c2ccc(-c3cn(C)nn3)cc2N(C(=O)OC(C)C)C[C@@H]1C [Example I-490]
50 to 500 nM	100 to 500 nM	100 to 1000 nM	CC(=O)N1c2ccc(-c3ccc(S(C)(=O)=O)cc3)cc2N(C(=O)OC2CCC2)C[C@@H]1C [Example I-493]
50 to 500 nM	100 to 500 nM	100 to 1000 nM	CCC(C)OC(=O)N1C[C@H](C)N(C(C)=O)c2ccc(-c3ccc(S(C)(=O)=O)cc3)cc21 (stereo partly drawn) [Example I-494]
> 500 nM	100 to 500 nM	100 to 1000 nM	CC(=O)N1c2ccc(-c3ccc(S(C)(=O)=O)cc3)cc2N(C(=O)OCC2CC2)C[C@@H]1C [Example I-495]
50 to 500 nM	100 to 500 nM	100 to 1000 nM	CC(=O)N1c2ccc(-c3ccc(S(C)(=O)=O)cc3)cc2N(C(=O)OC2CCOCC2)C[C@@H]1C [Example I-496]
50 to 500 nM	100 to 500 nM	100 to 1000 nM	CC(=O)N1c2ccc(-c3ccc(C(=O)N4CCNCC4)cc3)cc2N(C(=O)OC2CCOCC2)C[C@@H]1C [Example I-498]
